Laboratory results from patent US20230183335A1, “GLP1R AGONIST NMDAR ANTAGONIST CONJUGATES” (KØBENHAVNS UNIVERSITET, priority 2020, published 2023).
Non-standard residues stand in square brackets, D forms with d. Groups on a side chain read outwards from the residue. No end group written: not given here. disulfide linker = not defined here; Pen = CC(C)(S)[C@H](N)C(=O)O

Columns and labels:
Type in all cases: in vivo
DIO mice [1] = experiment: Body weight in diet-induced obesity (DIO) mice; conditions: for reduction in body weight %: FIG. 14, DIO mice treated for 5 days, N=7; for body weight percentage (BW %) reduction: FIG. 4, 40 nmol/kg or equimolar, DIO mice treated for 8 days; for reduction in body weight (BW %): FIG. 8, after 10 days of treatment
Method: (§1) C57BL6J male mice, in the following referred to as diet-induced obesity (DIO) mice, were maintained on a high-fat diet (58% energy from fat) and had, for each study, an average body weight of more than 45 gram prior to study start. Mice were either housed individually or double-housed. The mice were maintained on a 12 h dark-light cycle at 21-23° C. Compounds were administered subcutaneously once daily (between 2 pm-5 pm) and food intake (FI) and body weight (BW) measured at the corresponding time. For body composition, measures of fat and lean mass were performed prior to the study (1-3 days prior to study start) and on the final day of the study using an MRI scanner (EchoMRI). The group of mice injected with a vehicle (saline) served as the control group.

DIO mice [2] = experiment: Body composition (fat and lean mass, MRI) in DIO mice; conditions: for change in fat body mass (Delta change) / change in lean body mass (Delta change): FIG. 7, 40 nmol/kg or equimolar, DIO mice treated for 8 days
Method: as §1

DIO mice [3] = experiment: Food intake in diet-induced obesity (DIO) mice
Method: as §1

[4] = 100 nmol/kg or equimolar, DIO mice
[5] = FIG. 5, equimolar doses, DIO mice treated for 8 days, compared to vehicle and memantine
[6] = FIG. 6, 40 nmol/kg or equimolar, DIO mice treated for 8 days
[7] = FIG. 9, 100 nmol/kg or equimolar, DIO mice treated for 10 days
[8] = FIG. 11, 100 nmol/kg, DIO mice treated for 10 days

In the case of “GLP-1 Pen40: peptide of SEQ ID NO:1 with the Pen40 (L-penicillamine) modification (HAEGTFTSDVSSYLEEQAAKEFIAWLVKGGPSSGAPPPSC; not fully specified (residue 40, C-terminus); ends and bridges not checked; listed as Homo sapiens)”, the “reduction in body weight %” value (DIO mice [1]; 100 nmol/kg or equimolar) was “approximately 6%”.

“GLP-1 Cys40: the peptide of SEQ ID NO:1, C-terminal unmodified cysteine (HAEGTFTSDVSSYLEEQAAKEFIAWLVKGGPSSGAPPPSC; not fully specified (C-terminus); ends and bridges not checked; listed as Homo sapiens)” was tested, and the “change in fat body mass (Delta change)” value (DIO mice [2]) was “reduction in fat body mass”, the “change in lean body mass (Delta change)” value (DIO mice [2]) was “nearly no change” and the “body weight percentage (BW %) reduction” value (DIO mice [1]) was “lowered BW %”. The “reduction in body weight (BW %)” value (DIO mice [1]; [4]) was “approximately 8%”, the body weight reduction (DIO mice [1]; FIG. 12, 100 nmol/kg or equimolar, DIO mice, after 5 days of treatment) was “approximately 4%” and the “reduction in body weight %” value (DIO mice [1]; 100 nmol/kg or equimolar) was “approximately 6%”. For the same molecule, the “cumulative food intake (FI Cumulative)” value (DIO mice [3]; [5]) was “lowered cumulative food intake”, the “daily food intake (FI daily)” value (DIO mice [3]; [6]) was “lowered daily food intake” and the “daily food intake (FI daily)” value (DIO mice [3]; FIG. 6, 40 nmol/kg or equimolar, DIO mice treated for 8 days, listed as GLP-1) was “only a slight reduction in food intake”. The “cumulative food intake (FI Cumulative)” value (DIO mice [3]; [7]) was “lowered cumulative food intake”.

“GLP-1 Cys40/Memantine: conjugate of peptide of SEQ ID NO:1 and memantine appended via disulfide linker, unmodified cysteine (cysteine linked) (HAEGTFTSDVSSYLEEQAAKEFIAWLVKGGPSSGAPPPSC; not fully specified (residue 40, C-terminus); ends and bridges not checked; listed as Homo sapiens)” was tested, and the “change in fat body mass (Delta change)” value (DIO mice [2]) was “approximately 4 g”, the “change in lean body mass (Delta change)” value (DIO mice [2]) was “nearly no change” and the “body weight percentage (BW %) reduction” value (DIO mice [1]) was “approximately 7%”. The “cumulative food intake (FI Cumulative)” value (DIO mice [3]; [5]) was “lowered cumulative food intake” and the “daily food intake (FI daily)” value (DIO mice [3]; [6]) was “lowered daily food intake”.

For `CC12CC3CC(C)(C1)CC(N)(C3)C2` [memantine, reference compound], the “change in fat body mass (Delta change)” value (DIO mice [2]) was “reduction in fat body mass” and the “change in lean body mass (Delta change)” value (DIO mice [2]) was “nearly no change”.

In the case of “GLP-1 Cys40/MK801: peptide of SEQ ID NO:1 conjugated with chemical linker derivatized MK801, cysteine linked (HAEGTFTSDVSSYLEEQAAKEFIAWLVKGGPSSGAPPPSC; not fully specified (residue 40, C-terminus); ends and bridges not checked; listed as Homo sapiens)”, the “change in fat mass (reduction)” value (DIO mice [2]; [8]) was about 5 g, the “change in lean body mass” value (DIO mice [2]; [8]) was “reduction in both fat and lean body mass” and the “reduction in body weight (BW %)” value (DIO mice [1]; [4]) was about 12%. The “cumulative food intake (FI Cumulative)” value (DIO mice [3]; [7]) was “approximately 13 g/day”, the “cumulative food intake less than the vehicle-treated mice” value (DIO mice [3]; FIG. 9, 100 nmol/kg, DIO mice treated for 10 days) was “approximately 10 g/day” and the “daily food intake (FI daily)” value (DIO mice [3]; FIG. 10, 100 nmol/kg, DIO mice treated for 10 days, compared to vehicle) was “reduction in food intake was observed all 10 days”.

With “GIP/GLP-1/MK801 conjugate: co-agonist GIP/GLP-1 Pen40/MK801 conjugate, peptide according to SEQ ID NO:9 (YGEGTFTSDYSIYLDKQAAKEFVNWLLAGGPSSGAPPPS[Pen]([disulfide linker-MK801]); not fully specified (C-terminus); printed as YX1EGT FTSDY SIYLD KQAAX1 EFVNW LLAGG PSSGA PPPSX2; reading uncertain; also: MK801 attached via disulfide linker; listed as Homo sapiens)” the “overall reduction in body weight compared to the control group” value (DIO mice [1]; FIG. 33, 50 nmol/kg, DIO mice treated for 7 days) was “approximately 25%” and the “cumulative food intake (Cumulative FI)” value (DIO mice [3]; FIG. 34, 50 nmol/kg, DIO mice treated for 7 days, control group 15 g) was “approximately 3 g”.

In the case of `C[C@]12N[C@H](Cc3ccccc31)c1ccccc12` [MK801, reference compound], the “reduction in body weight (BW %)” value (DIO mice [1]; [4]) was “nearly no percentage change”.
